Laboratory results from patent US20250025443A1, “COMPOUNDS AND METHODS FOR TREATING CORONA VIRUSES” (CLEAR CREEK BIO, INC., priority 2021, published 2025).
Like-named read-outs stand apart in the source and are kept apart here.

Molecular target: SARS-CoV-2 Papain-Like Protease (PLpro) (Severe acute respiratory syndrome coronavirus 2 (2019-nCoV) (SARS-CoV-2), UniProt P0DTD1)
Test: biochemical
[1] = PLpro enzymatic fluorescence assay, class symbols, read-out: PLpro IC50
[2] = SARS-CoV-2 PLpro enzymatic fluorescence assay, read-out: PLpro IC50

Compound | IC50 [1] [nM] | IC50 [2] [nM] | also measured
COc1cc(C2(NC(=O)c3cc(OCc4ccccn4)ccc3C)CC2)c2cccnc2c1 [Compound 562, N-(1-(7-Methoxyquinolin-5-yl)cyclopropyl)-2-methyl-5-(pyridin-2-ylmethoxy)benzamide] | 100 to 1000 | – | –
Cc1ccc(C2=CCNCC2)cc1C(=O)NC1(c2cccc3ccccc23)CC1 [Compound 399, 2-Methyl-N-(1-(naphthalen-1-yl)cyclopropyl)-5-(1,2,3,6-tetrahydropyridin-4-yl)benzamide] | – | – | IC50 (PLpro IC50, SARS-CoV-2 PLpro enzymatic fluorescence assay): < 100 nM
Cc1ccc(OCCN(C)C)cc1C(=O)NC1(c2cccc3ccncc23)CC1 [Compound 333, 5-(2-(Dimethylamino)ethoxy)-N-(1-(isoquinolin-8-yl)cyclopropyl)-2-methylbenzamide] | – | 100 to 1000 | –
Cc1cc(C2(NC(=O)c3cc(OC[C@@H]4CCN4C)ccc3C)CC2)c2cccnc2c1 [Compound 581, (S)-2-Methyl-5-((1-methylazetidin-2-yl)methoxy)-N-(1-(7-methylquinolin-5-yl)cyclopropyl)benzamide] | – | < 100 | –
COc1cc(C2(NC(=O)c3cc(OC[C@H]4C[C@H](F)CN4)ccc3C)CC2)c2cccnc2c1 [Compound 556, 5-(((2R,4S)-4-Fluoropyrrolidin-2-yl)methoxy)-N-(1-(7-methoxyquinolin-5-yl)cyclopropyl)-2-methylbenzamide] | < 100 | – | –
CC(=O)Nc1cc(C2(NC(=O)c3cc(OCC4CCN4C)ccc3C)CC2)c2ccccc2c1 (stereo not drawn) [Compound 500, N-(1-(3-Acetamidonaphthalen-1-yl)cyclopropyl)-2-methyl-5-((1-methylazetidin-2-yl)methoxy)benzamide] | < 100 | – | –
Cc1ccc(N2CCC(N)C2)cc1C(=O)NC1(c2cccc3ccccc23)CC1 (stereo not drawn) [Compound 485, 5-(3-Aminopyrrolidin-1-yl)-2-methyl-N-(1-(naphthalen-1-yl)cyclopropyl)benzamide] | < 100 | – | –
COc1cc(C2(NC(=O)c3cc(OC[C@@H]4CCN4C)ccc3C)CC2)c2ncccc2c1 [Compound 761, (S)-N-(1-(6-Methoxyquinolin-8-yl)cyclopropyl)-2-methyl-5-((1-methylazetidin-2-yl)methoxy)benzamide] | 100 to 1000 | – | –
CC(=O)Nc1cc(C2(NC(=O)c3cc(OC[C@@H]4CCN4C)ccc3C)CC2)c2cccnc2c1 [Compound 744, (S)-N-(1-(7-Acetamidoquinolin-5-yl)cyclopropyl)-2-methyl-5-((1-methylazetidin-2-yl)methoxy)benzamide] | – | < 100 | –
Cc1ccc(-c2cc(C3(NC(=O)c4cc(OCC(C)N)ccc4C)CC3)c3ccccc3c2)s1 (stereo not drawn) [Compound 479, 5-(2-Aminopropoxy)-2-methyl-N-(1-(3-(5-methylthiophen-2-yl)naphthalen-1-yl)cyclopropyl)benzamide] | < 100 | – | –
COc1cc(C2(NC(=O)c3cc(OC[C@@H]4CCN4C)c(O)cc3C)CC2)c2cccnc2c1 [Compound 750, (S)-4-Hydroxy-N-(1-(7-methoxyquinolin-5-yl)cyclopropyl)-2-methyl-5-((1-methylazetidin-2-yl)methoxy)benzamide] | < 100 | – | –
C=Cc1cc(C2(NC(=O)c3cc(OCC45CCCN4CCC5)ccc3C)CC2)c2cccnc2c1 [Compound 748, 2-Methyl-5-((tetrahydro-1H-pyrrolizin-7a (5H)-yl)methoxy)-N-(1-(7-vinylquinolin-5-yl)cyclopropyl)benzamide] | – | < 100 | –
C=Cc1cc(C2(NC(=O)c3cc(OC45CCCN(CCC4)C5)ccc3C)CC2)c2cccnc2c1 [Compound 749, 5-(1-Azabicyclo[3.3.1]nonan-5-yloxy)-2-methyl-N-(1-(7-vinylquinolin-5-yl)cyclopropyl)benzamide] | – | < 100 | –
Cc1cc(-c2cc(C3(NC(=O)c4cc(OC[C@@H]5CCN5)ccc4C)CC3)c3cccnc3c2)cs1 [Compound 640, (S)-5-(Azetidin-2-ylmethoxy)-2-methyl-N-(1-(7-(5-methylthiophen-3-yl)quinolin-5-yl)cyclopropyl)benzamide] | < 100 | – | –
C=Cc1cc(C2(NC(=O)c3cc(OC[C@@H]4CCCN4)ccc3C)CC2)c2cccnc2c1 [Compound 713, (S)-2-Methyl-5-(pyrrolidin-2-ylmethoxy)-N-(1-(7-vinylquinolin-5-yl)cyclopropyl)benzamide] | – | < 100 | –
Cc1ccc(OC[C@@H]2CCN2)cc1C(=O)NC1(c2cc(-c3cccnc3)cc3ncccc23)CC1 [Compound 637, (S)-5-(Azetidin-2-ylmethoxy)-2-methyl-N-(1-(7-(pyridin-3-yl)quinolin-5-yl)cyclopropyl)benzamide] | < 100 | – | –
Cc1ccc(NC2CNC2)cc1C(=O)NCc1ccc(-c2ccc(CN3CCCC3)s2)cc1 [Compound 116, 5-(Azetidin-3-ylamino)-2-methyl-N-(4-(5-(pyrrolidin-1-ylmethyl)thiophen-2-yl)benzyl)benzamide] | – | > 5000 | –
Cc1ccc(N)cc1C(=O)NC1(c2cccc3ccccc23)CCC1 [Compound 219, 5-Amino-2-methyl-N-(1-(naphthalen-1-yl)cyclobutyl)benzamide] | – | > 5000 | –

Compound | IC50 [1] [nM] | IC50 [2] [nM] | also measured
Cc1ccc(OC[C@H](C)N)cc1C(=O)NC1(c2cc(-c3cccs3)cc3ccccc23)CC1 [Compound 539, (S)-5-(2-Aminopropoxy)-2-methyl-N-(1-(3-(thiophen-2-yl)naphthalen-1-yl)cyclopropyl)benzamide] | – | < 100 | –
Cc1ccc(OCCN(C)C)cc1C(=O)NC1(c2cccc3c2CCCC3)CC1 [Compound 329, 5-(2-(Dimethylamino)ethoxy)-2-methyl-N-(1-(5,6,7,8-tetrahydronaphthalen-1-yl)cyclopropyl)benzamide] | – | 100 to 1000 | –
Cc1ccc(OCC2CCN2C)cc1C(=O)NC1(c2cc(C#N)cc3ccccc23)CC1 (stereo not drawn) [Compound 484, N-(1-(3-Cyanonaphthalen-1-yl)cyclopropyl)-2-methyl-5-((1-methylazetidin-2-yl)methoxy)benzamide] | – | < 100 | –
Cc1nnc(-c2cc(C3(NC(=O)c4cc(OC[C@@H]5CCN5C)ccc4C)CC3)c3cccnc3c2)o1 [Compound 693, (S)-2-Methyl-N-(1-(7-(5-methyl-1,3,4-oxadiazol-2-yl)quinolin-5-yl)cyclopropyl)-5-((1-methylazetidin-2-yl)methoxy)benzamide] | < 100 | – | –
Cc1ccc(OC[C@@H]2CCN2)cc1C(=O)NC1(c2cc(-c3nc4ccccc4o3)cc3ncccc23)CC1 [Compound 711, (S)-5-(Azetidin-2-ylmethoxy)-N-(1-(7-(benzo[d]oxazol-2-yl)quinolin-5-yl)cyclopropyl)-2-methylbenzamide] | < 100 | – | –
COc1cc(C2(NC(=O)c3cc(OC[C@@H]4CCCN4)ccc3C)CC2)c2ccccc2c1 [Compound 419, (S)-N-(1-(3-Methoxynaphthalen-1-yl)cyclopropyl)-2-methyl-5-(pyrrolidin-2-ylmethoxy)benzamide] | – | < 100 | –
Cc1ccc(NC2CNC2)cc1C(=O)NC(C)c1cccc2c1CCCC2 (stereo not drawn) [Compound 172, 5-(Azetidin-3-ylamino)-2-methyl-N-(1-(5,6,7,8-tetrahydronaphthalen-1-yl)ethyl)benzamide] | – | – | IC50 (PLpro 6.25 nM, substrate 25 μM, 60 min at 25° C., for more potent compounds PLpro 1 nM, 120 min, read-out: PLpro IC50): > 5000 nM
C=Cc1cc(C2(NC(=O)c3cc(OC[C@@H]4CCN4)ccc3C)CC2)c2cccnc2c1 [Compound 612, (S)-5-(Azetidin-2-ylmethoxy)-2-methyl-N-(1-(7-vinylquinolin-5-yl)cyclopropyl)benzamide] | < 100 | – | –
Cc1ccc(OCCN(C)C)cc1C(=O)NC1(c2cccc(F)c2)CC1 [Compound 252, 5-(2-(Dimethylamino)ethoxy)-N-(1-(3-fluorophenyl)cyclopropyl)-2-methylbenzamide] | – | > 5000 | –
CNCc1nc2cc(C)c(C(=O)NC3(c4cccc5ccccc45)CC3)cc2o1 [Compound 426, 5-Methyl-2-((methylamino)methyl)-N-(1-(naphthalen-1-yl)cyclopropyl)benzo[d]oxazole-6-carboxamide] | – | 100 to 1000 | –
Cc1ccc(OCCN2CCC(F)(F)CC2)cc1C(=O)NC1(c2cccc3ccccc23)CC1 [Compound 284, 5-(2-(4,4-Difluoropiperidin-1-yl)ethoxy)-2-methyl-N-(1-(naphthalen-1-yl)cyclopropyl)benzamide] | – | 100 to 1000 | –
Cc1ccc(C2=CCNC2)cc1C(=O)NC1(c2cccc3ccccc23)CC1 [Compound 398, 5-(2,5-Dihydro-1H-pyrrol-3-yl)-2-methyl-N-(1-(naphthalen-1-yl)cyclopropyl)benzamide] | – | < 100 | –
CC(=O)N(c1ccc(C)c(C(=O)N[C@H](C)c2cccc3ccccc23)c1)C(CN)CO (stereo partly drawn) [Compound 165, 5-(N-(1-Amino-3-hydroxypropan-2-yl)acetamido)-2-methyl-N-((R)-1-(naphthalen-1-yl)ethyl)benzamide] | – | > 5000 | –
Cc1ccc(OC[C@@H]2CCN2C)cc1C(=O)NC1(c2cc(/C=C/C3CC3)cc3ncccc23)CC1 [Compound 684, (S,E)-N-(1-(7-(2-Cyclopropylvinyl)quinolin-5-yl)cyclopropyl)-2-methyl-5-((1-methylazetidin-2-yl)methoxy)benzamide] | < 100 | – | –
Cc1ccc2c(C3(NC(=O)c4cc(OC[C@@H]5CCN5C)ccc4C)CC3)cc(N3CC(F)C3)cc2n1 [Compound 816, (S)—N-(1-(7-(3-Fluoroazetidin-1-yl)-2-methylquinolin-5-yl)cyclopropyl)-2-methyl-5-((1-methylazetidin-2-yl)methoxy)benzamide] | < 100 | – | –
C=Cc1cc(C2(NC(=O)c3cc(OC[C@@H]4CCN4C)c(F)cc3C)CC2)c2cccnc2c1 [Compound 800, (S)-4-Fluoro-2-methyl-5-((1-methylazetidin-2-yl)methoxy)-N-(1-(7-vinylquinolin-5-yl)cyclopropyl)benzamide] | – | < 100 | –
CNCCOc1ccc(C)c(C(=O)NC2(c3cccc4ccccc34)CNC2)c1 [Compound 453, 2-Methyl-5-(2-(methylamino)ethoxy)-N-(3-(naphthalen-1-yl)azetidin-3-yl)benzamide] | – | > 5000 | –
Cc1ccc(OCCN(C)C)cc1C(=O)NC1(c2cccc3cc(F)ccc23)CC1 [Compound 319, 5-(2-(Dimethylamino)ethoxy)-N-(1-(6-fluoronaphthalen-1-yl)cyclopropyl)-2-methylbenzamide] | – | < 100 | –
